In general, IC50 refers to the midpoint of a concentration-inhibition curve. A low value points to greater potency in that assay.

This is an account of results in EP4748841A1, “BICYCLO[5,6] IMIDAZOLE PYRIMIDONE DERIVATIVE AND PREPARATION METHOD THEREFOR AND USE THEREOF” (Shujing Biopharma Co., Ltd, priority 2023, dated 2025).

The target of this assay is T1, Lp-PLA2 (Homo sapiens, UniProt Q13093).
T1 construct: from tissue; host or cells: pooled (mixed) human plasma
T1 sequence (Q13093 22-441): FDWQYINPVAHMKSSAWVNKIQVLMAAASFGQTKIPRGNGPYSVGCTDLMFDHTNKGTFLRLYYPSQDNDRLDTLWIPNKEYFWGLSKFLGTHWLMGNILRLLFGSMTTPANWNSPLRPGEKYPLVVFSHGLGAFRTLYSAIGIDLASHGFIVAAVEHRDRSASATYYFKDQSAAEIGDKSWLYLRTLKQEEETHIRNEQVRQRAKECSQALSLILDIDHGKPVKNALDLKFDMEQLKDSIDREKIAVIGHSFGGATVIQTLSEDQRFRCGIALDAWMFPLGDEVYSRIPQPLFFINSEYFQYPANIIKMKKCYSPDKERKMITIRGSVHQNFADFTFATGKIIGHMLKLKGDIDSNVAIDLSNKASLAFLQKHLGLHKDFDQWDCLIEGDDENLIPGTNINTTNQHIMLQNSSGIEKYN
Kind of assay: Inhibitory activity against Lp-PLA2 in human plasma (Thio-PAF assay). The format is biochemical. Conditions: 2-thio-PAF substrate, 30 min pre-incubation. The source says:
The literature reports that 2-Thio-PAF, commercially available from Cayman Chemical, is a substrate for PAF hydrolase (PAF-AH). After its cleavage by PAF-AH, the free thiol released at the sn-2 position can react with 7-diethylamino-3-(4'-maleimidophenyl)-4-methylcoumarin (CPM), resulting in increased fluorescence. Thus, Lp-PLA2 inhibitors can prevent this cleavage, and no increase in fluorescence is observed. In this experiment, the human plasma assay employed the same thioester analog of PAF as described in the recombinant human Lp-PLA2 assay described above.
• (1) The Thio-PAF assay was performed as a quenched 75 µL assay. A compound source plate was prepared by preparing 1:4 (v/v) serial diluents of the compounds in pure DMSO in a 96-well microplate. • (2) 1 µL of each test compound from the compound source plate was transferred into a 96-well microplate containing 40 µL of pre-thawed mixed human plasma by a Rainin multichannel pipette, and the plasma was thawed at room temperature and centrifuged at 2000 rpm for 10 min. The plate was shaken on a microplate shaker for 2 min for uniform mixing. • (3) After 30 min of pre-incubation at room temperature, 10 µL of a substrate solution was added sequentially to the 96-well microplate described above by a Rainin multichannel pipette. The substrate solution contained 2.5 mM 2-thio-PAF (from an ethanol mother liquor), 32 µM CPM (from a DMSO mother liquor), and 3.2 mM N-ethylmaleimide (freshly prepared in DMSO for each experiment) in assay buffer (pH 7.4) consisting of 50 mM HEPES, 150 mM NaCl, and 1 mM CHAPS. After the addition was completed, the plate was immediately shaken for 2 min, and the reaction time for the substrate was 4 min in total. After the reaction was completed, the reaction was quenched with 25 µL of an aqueous solution of 5% trifluoroacetic acid. The plate was centrifuged at 1000 rpm for 1 min. • (4) The FLINT signal (FLINT380/480) was read using a microplate reader. • (5) IC50 data, curve fitting, and QC analyses were performed using GraphPad Prism 8.0 and Excel.

`N#Cc1ccc(COc2cc3n(c(=O)n2)CC2CCN32)cc1` (stereo not shown) [Example 28, 3-((4-Cyanobenzyl)oxy)-6,7,7a,8-tetrahydro-1H-azeto[1',2':3,4]imidazo[1,2-c]pyrimidin-1-one] displayed an IC50 of 892 nM.

As to `O=c1nc(OCc2ccc(Oc3ccc(F)c(C(F)(F)F)c3)nc2)cc2n1CC1CCN21` (stereo not shown) [Example 41, 3-((6-(4-Fluoro-3-(trifluoromethyl)phenoxy)pyridin-3-yl)methoxy)-6,7,7a,8-tetrahydro-1H-azeto[1',2':3,4]imidazo[1,2-c]pyrimidin-1-one], the IC50 turned out to be 292 nM. Against the preceding compound, the IC50 is about 3.1-fold lower.

Consider `Cc1ccc(Oc2c(F)cc(COc3cc4n(c(=O)n3)CC3CCN43)cc2F)cn1` (stereo not shown) [Example 36], for which half-maximal inhibition (IC50) was put at 35.8 nM.

`Cc1ccc(Oc2c(F)cc(COc3cc4n(c(=O)n3)C[C@@H]3CCN43)cc2F)cn1` [Example 36-S] yielded an IC50 of 96.4 nM.

In turn, `O=c1nc(OCc2ccc(Oc3ccccc3)cc2)cc2n1CC1CCN21` (stereo not shown) [Example 12, 3-((4-Phenoxybenzyl)oxy)-6,7,7a,8-tetrahydro-1H-azeto[1',2':3,4]imidazo[1,2-c]pyrimidin-1-one] yielded an IC50 of 2090 nM. This IC50 lies about 22-fold higher than the previous one.

`O=c1nc(OCc2cc(F)c(Oc3ccnc(C(F)(F)F)c3)c(F)c2)cc2n1C[C@@H]1CCN21` [Example 34-S] showed an IC50 of 52.3 nM.

Compound `O=c1nc(OCc2cc(F)c(Oc3ccc(C(F)(F)F)nc3)c(F)c2)cc2n1CC1CCN21` (stereo not shown) [Example 52] returned an IC50 of 4.3 nM.

In turn, `N#Cc1cc(COc2cc3n(c(=O)n2)CC2CCN32)ccc1Oc1cccc(C(F)(F)F)c1` (stereo not shown) [Example 22, 5-(((1-Oxo-6,7,7a,8-tetrahydro-1H-azeto[1',2':3,4]imidazo[1,2-c]pyrimidin-3-yl)oxy)methyl)-2-(3-(trifluoromethyl)phenoxy)benzonitrile] had an IC50 of 4.6 nM.

`O=c1nc(OCc2ccc(F)c(F)c2)cc2n1CC1CCN21` (stereo not shown) [Example 54, 3-((3,4-Difluorobenzyl)oxy)-6,7,7a,8-tetrahydro-1H-azeto[1',2':3,4]imidazo[1,2-c]pyrimidin-1-one] showed an IC50 of 30.3 nM.

In turn, `Cc1ncc(Oc2c(F)cc(COc3cc4n(c(=O)n3)CC3CCN43)cc2F)cn1` (stereo not shown) [Example 44] had an IC50 of 25.6 nM.

In turn, `O=c1nc(OCc2ccc(F)cc2)cc2n1CC1CCN21` (stereo not shown) [Example 7, 3-((4-Fluorobenzyl)oxy)-6,7,7a,8-tetrahydro-1H-azeto[1',2':3,4]imidazo[1,2-c]pyrimidin-1-one] registered an IC50 of 68.7 nM.

In the case of `O=c1nc(OCc2cnc(Oc3ccc(Cl)c(C(F)(F)F)c3)c(F)c2)cc2n1CC1CCN21` (stereo not shown) [Example 38, 3-((6-(4-Chloro-3-(trifluoromethyl)phenoxy)-5-fluoropyridin-3-yl)methoxy)-6,7,7a,8-tetrahydro-1H-azeto[1',2':3,4]imidazo[1,2-c]pyrimidin-1-one], the half-maximal inhibitory concentration (IC50) worked out at 56.3 nM.

With `O=c1nc(OCc2ccc(Oc3ccccc3)nc2)cc2n1CC1CCN21` (stereo not shown) [Example 16, 3-((6-Phenoxypyridin-3-yl)methoxy)-6,7,7a,8-tetrahydro-1H-azeto[1',2':3,4]imidazo[1,2-c]pyrimidin-1-one], half-maximal inhibition (IC50) was put at 2740 nM.

`Cc1ccc(Oc2c(F)cc(COc3cc4n(c(=O)n3)C[C@H]3CCN43)cc2F)cn1` [Example 36-R] showed an IC50 of 15.9 nM.

`O=c1nc(OCc2ccc(Oc3cnc(C(F)(F)F)nc3)c(F)c2)cc2n1CC1CCN21` (stereo not shown) [Example 51]: the IC50 turned out to be 21.2 nM.

`N#Cc1cc(COc2cc3n(c(=O)n2)CC2CCN32)ccc1Oc1ccc(Cl)c(C(F)(F)F)c1` (stereo not shown) [Example 39, 2-(4-Chloro-3-(trifluoromethyl)phenoxy)-5-(((1-oxo-6,7,7a,8-tetrahydro-1H-azeto[1',2':3,4]imidazo[1,2-c]pyrimidin-3-yl)oxy)methyl)benzonitrile] came in with an IC50 of 3.9 nM.

`O=c1nc(OCc2ccc(Oc3ccnc(C(F)(F)F)c3)c(F)c2)cc2n1CC1CCN21` (stereo not shown) [Example 23]: the 50% inhibitory concentration (IC50) is 4.3 nM.

Turning to `O=c1nc(OCc2cc(F)c(Oc3ccnc(C(F)(F)F)c3)c(F)c2)cc2n1CC1CCN21` (stereo not shown) [Example 34], the IC50 stood at 5.2 nM. The IC50 values of the last two compounds are within 1.5-fold of each other.

On to `O=c1nc(OCc2ccc(Oc3ccc(F)c(F)c3)c(F)c2)cc2n1CC1CCN21` (stereo not shown) [Example 24, 3-((4-(3,4-Difluorophenoxy)-3-fluorobenzyl)oxy)-6,7,7a,8-tetrahydro-1H-azeto[1',2':3,4]imidazo[1,2-c]pyrimidin-1-one], for which half-maximal inhibition (IC50) required 12.7 nM.

In turn, `N#Cc1cc(Oc2ccc(COc3cc4n(c(=O)n3)CC3CCN43)cc2F)ccc1Cl` (stereo not shown) [Example 53, 2-Chloro-5-(2-fluoro-4-(((1-oxo-6,7,7a,8-tetrahydro-1H-azeto[1',2':3,4]imidazo[1,2-c]pyrimidin-3-yl)oxy)methyl)phenoxy)benzonitrile] had an IC50 of 107 nM.

Compound `O=c1nc(OCc2ccc(Oc3ccc(Cl)c(C(F)(F)F)c3)cc2)cc2n1CC1CCN21` (stereo not shown) [Example 50, 3-((4-(4-Chloro-3-(trifluoromethyl)phenoxy)benzyl)oxy)-6,7,7a,8-tetrahydro-1H-azeto[1',2':3,4]imidazo[1,2-c]pyrimidin-1-one] returned an IC50 of 12.6 nM.

The compound `O=c1nc(OCc2ccc(Oc3ccc(C(F)(F)F)nc3)c(F)c2)cc2n1CC1CCN21` (stereo not shown) [Example 1] returned an IC50 of 3.9 nM.

In turn, `N#Cc1cc(COc2cc3n(c(=O)n2)CC2CCN32)ccc1Oc1ccc(C(F)(F)F)cn1` (stereo not shown) [Example 21, 5-(((1-Oxo-6,7,7a,8-tetrahydro-1H-azeto[1',2':3,4]imidazo[1,2-c]pyrimidin-3-yl)oxy)methyl)-2-((5-(trifluoromethyl)pyridin-2-yl)oxy)benzonitrile] came in with an IC50 of 200 nM.

For the compound `Cc1ccc(COc2cc3n(c(=O)n2)CC2CCN32)cc1` (stereo not shown) [Example 8, 3-((4-Methylbenzyl)oxy)-6,7,7a,8-tetrahydro-1H-azeto[1',2':3,4]imidazo[1,2-c]pyrimidin-1-one], half-maximal inhibition (IC50) was put at 2430 nM.

The compound `Cn1cc(Oc2c(F)cc(COc3cc4n(c(=O)n3)CC3CCN43)cc2F)cn1` (stereo not shown) [Example 45] returned an IC50 of 203 nM.
